Test results published in BindingDB's records for doi:10.1016/j.ejmech.2014.09.012 (Shandong University, 2014).

Test: Inhibition of HIV-1 isolate YTA48P HIV-1 gp120

- IC50: 610 nM
SMILES: CC1(C)CC(NC(=O)C(=O)Nc2ccc(Cl)cc2)CC(C)(C)N1 [N-(4-chlorophenyl)-N'-(2,2,6,6-tetramethylpiperidin-4-yl)-oxalamide]
